Measurements published in US20230312551A1, “SALT OF 2-(SUBSTITUTED PYRIMIDINYL) THIAZOLE CARBOXAMIDE COMPOUND, AND COMPOSITION AND USE THEREOF” (SUNSHINE LAKE PHARMA CO., LTD., priority 2020, published 2023).

How the values were obtained:
[1] = Stability test experiment C: storage in PE bag and aluminum foil; type: physicochemical; conditions: for Purity: HPLC
Protocol: 1.0 g of the test samples were packaged in a single-layer PE bag and aluminum foil, and fasten with cable ties. 6 packs were prepared in total and put in a stable box (40° C. ± 2° C., RH 75% ± 5%, or 25° C. ± 2° C., RH 60% ± 10%). Test samples were taken at 0, 3, and 6 months for HPLC and XRPD detection, respectively.

[2] = Stability test experiment B: high temperature, high humidity and light tests; type: physicochemical; conditions: for Purity: HPLC
Protocol: (§1) (1) High temperature test: the test samples were taken into the flat weighing bottle, spread into a thin layer of ≤ 5 mm thick, and stored for 30 days at a humidity of 75% ± 5%, 40° C. ± 2° C. and/or 60° C. ± 2° C. On the 5th, 10th, and 30th days, samples were taken for detection according to the key stability inspection items: the color change of the sample was observed, the purity of the sample was determined by HPLC, and the crystal structure of the sample was determined by XRPD.
as §1, with “(2)” for “(1)”, “humidity” for “temperature”, “25° C., RH 90% ± 5% and/or RH” for “a humidity of”, “5%.” for “5%, 40° C. ± 2° C. and/or 60° C. ± 2° C.”
(3) Light test: the test samples were taken into the flat weighing bottle, spread into a thin layer of ≤ 5 mm thick, and placed in a light box (with an ultraviolet lamp) with an open mouth. The test samples were stored under the condition of illuminance of 4500 ± 5001x and ultraviolet light ≥ 0.7w/m^2 for 30 days. Samples were taken on the 5th, 10th and 30th days. The color change of the sample was observed, the purity of the sample was determined by HPLC, and the crystal structure of the sample was determined by XRPD.

[3] = Hygroscopicity test; type: physicochemical; conditions: 25° C. ± 1° C., RH 80% ± 2%, 24 hours
Protocol: 1) A dry stoppered glass weighing bottle was placed in a suitable constant temperature desiccator (RH 80% ± 2%) at 25° C. + 1° C. the day before, and accurately weighed (m1).
2) An appropriate amount of the test sample was taken and spread in the above weighing bottle. The thickness of the test sample was generally about 1 mm, and it was precisely weighed (m2).
3) The weighing bottle was opened and placed together with the bottle cap under the above constant temperature and humidity conditions for 24 hours.
4) The weighing bottle was closed with the bottle cap, and accurately weighed (m3). Calculate: weight gain % = (m3-m2) / (m2-m1) × 100%.
5) Judgment of hygroscopicity results (Chinese Pharmacopoeia 2015 Edition Appendix 9103 Guidelines for the hygroscopicity test of drugs, experimental conditions: 25° C.±1° C., 80%±2% relative humidity): […]

[4] = Stability test experiment A: suspended and stirred in water, XRPD; type: physicochemical; conditions: for Crystal form (XRPD) after stirring in water: suspended and stirred in water at room temperature for 24 h
Protocol: At room temperature, the test samples (50 mg) were added into EP tubes, water (1 mL) was added respectively. The mixture was suspended and stirred at room temperature for 24 h, then suction filtered, and dried for X-ray powder diffraction (XRPD) analysis and identification. Among them, the experimental results of phosphate crystal form A, phosphate crystal form B, phosphate crystal form C, phosphate crystal form G and phosphate crystal form H are shown in FIGS. 20-24.

[5] = Pharmacokinetics test in Beagle dogs, oral capsules; type: in vivo; conditions: male Beagle dogs, oral capsule, 5 mg/kg
Protocol: The test samples were filled into capsules for oral administration.
Three 8-12 kg male Beagle dogs were taken orally administered capsules containing the test sample at a dose of 5 mg/kg, and blood was collected at time points of 0.25, 0.5, 1.0, 2.0, 4.0, 6.0, 8.0 and 24 h. Standard curve was plotted based on concentrations of the samples in a suitable range, the concentration of the test sample in the plasma sample was measured and quantified by AB SCIEX API4000 LC-MS / MS at MRM mode. Pharmacokinetic parameters were calculated according to drug concentration -time curve using a noncompartmental method by WinNonLin 6.3 software.

[6] = 25° C. ± 2° C., RH 60% ±10%, 3 months
[7] = 25° C. ± 2° C., RH 60% ±10%, 6 months
[8] = 40° C. ± 2° C., RH 75% ±5%, 3 months
[9] = 40° C. ± 2° C., RH 75% ±5%, 6 months
[10] = High humidity (25° C., RH 90% ± 5%), 5 days
[11] = High humidity (25° C., RH 90% ± 5%), 10 days
[12] = High humidity (25° C., RH 90% ± 5%), 30 days
[13] = High temperature (60° C., RH 75%±5%), 5 days
[14] = High temperature (60° C., RH 75%±5%), 10 days
[15] = High temperature (60° C., RH 75%±5%), 30 days

With `Cc1nc(-c2cnc(N3CCN(CCCc4c[nH]c5ccc(C#N)cc45)CC3)nc2)sc1C(N)=O` [Example 2, 2-(2-(4-(3-(5-cyano-1H-indol-3-yl)propyl)piperazin-1-yl)pyrimidin-5-yl)-4-methylthiazol-5-carboxamide] the Outward ([1]; 0 month) was “Light yellow solid”, the Purity ([1]; 0 month) was 99.62% and the Outward [1, 6] was “Light yellow solid”. For the same compound, the Purity [1, 6] was 99.63%, the Outward [1, 7] was “Light yellow solid” and the Purity [1, 7] was 99.64%. For the same compound, the Outward [1, 8] was “Light yellow solid”, the Purity [1, 8] was 99.63% and the Outward [1, 9] was “Light yellow solid”. The Purity [1, 9] was 99.64%, the “Crystal structure (XRPD)” value ([1]; stored up to 6 months at 40° C./RH 75% or 25° C./RH 60% in PE bag and aluminum foil) was “have not changed” and the Outward ([2]; 0 day) was “Light yellow solid”. For the same compound, the Purity ([2]; 0 day) was 99.24%, the Outward [2, 10] was “Light yellow solid” and the Purity [2, 10] was 99.27%. The Outward [2, 11] was “Light yellow solid”, the Purity [2, 11] was 99.21% and the Outward [2, 12] was “Light yellow solid”. The Purity [2, 12] was 99.22%, the Outward [2, 13] was “Light yellow solid” and the Purity [2, 13] was 99.26%. The Outward [2, 14] was “Light yellow solid”, the Purity [2, 14] was 99.23% and the Outward [2, 15] was “Light yellow solid”. The Purity [2, 15] was 99.24%, the Outward ([2]; Light, 5 days) was “Yellow solid” and the Purity ([2]; Light, 5 days) was 99.25%. For the same compound, the Outward ([2]; Light, 10 days) was “Yellow solid”, the Purity ([2]; Light, 10 days) was 99.21% and the Outward ([2]; Light, 30 days) was “Yellow solid”. For the same compound, the Purity ([2]; Light, 30 days) was 99.10%, the XRPD pattern ([2]; high temperature (60° C., RH 75% ± 5%), high humidity (25° C., RH 90% ± 5%) or light, 30 days) was “basically unchanged” and the “Conclusion (hygroscopicity feature)” value [3] was “Slightly hygroscopicity (Less than 2% but not less than 0.2%)”. The The hygroscopicity gain [3] was 0.32%, the “Crystal structure after stirring in water” value ([4]; stirred in water at room temperature or under heating conditions) was “does not change” and the “Crystal form (XRPD) after stirring in water” value (“Crystal form (XRPD)” below) ([4]; listed as phosphate crystal form A) was “crystal form did not change”. The Cmax ([5]; dog, plasma) was 496 ng/mL, the Tmax ([5]; dog, plasma) was 1.67 h and the AUClast [5] was 5240 h^∗ng/ml.
In the case of `Cc1nc(-c2cnc(N3CCN(CCCc4c[nH]c5ccc(C#N)cc45)CC3)nc2)sc1C(N)=O` [Example 3, 2-(2-(4-(3-(5-cyano-1H-indol-3-yl)propyl)piperazin-1-yl)pyrimidin-5-yl)-4-methylthiazol-5-carboxamide], the “Crystal form (XRPD)” value ([4]; listed as phosphate crystal form B) was “crystal form changed”.
In the case of `Cc1nc(-c2cnc(N3CCN(CCCc4c[nH]c5ccc(C#N)cc45)CC3)nc2)sc1C(N)=O` [Example 4, 2-(2-(4-(3-(5-cyano-1H-indol-3-yl)propyl)piperazin-1-yl)pyrimidin-5-yl)-4-methylthiazol-5-carboxamide], the “Crystal form (XRPD)” value ([4]; listed as phosphate crystal form C) was “crystal form changed”.
In the case of `Cc1nc(-c2cnc(N3CCN(CCCc4c[nH]c5ccc(C#N)cc45)CC3)nc2)sc1C(N)=O` [Example 5, 2-(2-(4-(3-(5-cyano-1H-indol-3-yl)propyl)piperazin-1-yl)pyrimidin-5-yl)-4-methylthiazol-5-carboxamide], the “Crystal form (XRPD)” value ([4]; listed as phosphate crystal form G) was “crystal form changed”.
For `Cc1nc(-c2cnc(N3CCN(CCCc4c[nH]c5ccc(C#N)cc45)CC3)nc2)sc1C(N)=O` [Example 6, 2-(2-(4-(3-(5-cyano-1H-indol-3-yl)propyl)piperazin-1-yl)pyrimidin-5-yl)-4-methylthiazol-5-carboxamide], the “Crystal form (XRPD)” value ([4]; listed as phosphate crystal form H) was “crystal form changed”.
